Assay results: US20250289787A1, “HERBICIDAL 2-OXO-NICOTINIC ACID DERIVATIVES” (SYNGENTA CROP PROTECTION AG, priority 2022, published 2025)

Tests used:
Format in all cases: in vivo
[1] = system: Ipomoea hederacea (IPOHE); test: Pre-emergence test, herbicidal damage; set-up: key: 5=81-100%; 4=61-80%; 3=41-60%; 2=21-40%; 1=1-20%; 0=no damage to the plant; -=not tested; details: 1000 g/ha unless otherwise stated, evaluated after 13 days, five-point scale
Setaria faberi (SETFA) [2] = test: Pre-emergence test, herbicidal damage; set-up: key: 5=81-100%; 4=61-80%; 3=41-60%; 2=21-40%; 1=1-20%; 0=no damage to the plant; -=not tested; details: 1000 g/ha unless otherwise stated, evaluated after 13 days, five-point scale
[3] = system: Echinochloa crus-galli (ECHCG); test: Pre-emergence test, herbicidal damage; set-up: key: 5=81-100%; 4=61-80%; 3=41-60%; 2=21-40%; 1=1-20%; 0=no damage to the plant; -=not tested; details: 1000 g/ha unless otherwise stated, evaluated after 13 days, five-point scale
[4] = system: Amaranthus retoflexus (AMARE); test: Pre-emergence test, herbicidal damage; set-up: key: 5=81-100%; 4=61-80%; 3=41-60%; 2=21-40%; 1=1-20%; 0=no damage to the plant; -=not tested; details: 1000 g/ha unless otherwise stated, evaluated after 13 days, five-point scale
[5] = system: Amaranthus palmeri (AMAPA); test: Pre-emergence test, herbicidal damage; details: 1000 g/ha unless otherwise stated, evaluated after 13 days, five-point scale
[6] = system: Ipomoea hederacea (IPOHE); test: Post-emergence test, herbicidal damage; set-up: key: 5=81-100%; 4=61-80%; 3=41-60%; 2=21-40%; 1=1-20%; 0=no damage to the plant; -=not tested; details: sprayed after 8 days cultivation, 1000 g/ha unless otherwise stated, evaluated after 13 days, five-point scale
Description: (§1) Seeds of a variety of test species are sown in standard soil in pots Amaranthus palmeri (AMAPA), (Amaranthus retoflexus (AMARE), Echinochloa crus-galli (ECHCG), Zea mays (ZEAMX), Ipomoea 5 hederacea (IPOHE), and Setaria faberi (SETFA). After 8 days cultivation under controlled conditions in a glasshouse (at 24° C./16° C., day/night; 14 hours light; 65% humidity), the plants are sprayed with an aqueous spray solution derived from the formulation of the technical active ingredient in acetone/water (50:50) solution containing 0.5% Tween 20 (polyoxyethelyene sorbitan monolaurate, CAS RN 9005-64-5). Compounds are applied at 1000 g/ha unless otherwise stated. The test plants are then grown in a glasshouse under controlled conditions in a glasshouse (at 24° C./16° C., day/night; 14 hours light; 65% humidity) and watered twice daily. After 13 days the test is evaluated for the percentage damage caused to the plant. The biological activities are shown in the following table on a five-point scale (5=81-100%; 4=61-80%; 3=41-60%; 2=21-40%; 1=1-20%; 0=no damage to the plant; -=not tested).

[7] = system: Echinochloa crus-galli (ECHCG); test: Post-emergence test, herbicidal damage; set-up: key: 5=81-100%; 4=61-80%; 3=41-60%; 2=21-40%; 1=1-20%; 0=no damage to the plant; -=not tested; details: sprayed after 8 days cultivation, 1000 g/ha unless otherwise stated, evaluated after 13 days, five-point scale
Description: as §1

Zea mays (ZEAMX) [8] = test: Post-emergence test, herbicidal damage; set-up: key: 5=81-100%; 4=61-80%; 3=41-60%; 2=21-40%; 1=1-20%; 0=no damage to the plant; -=not tested; details: sprayed after 8 days cultivation, 1000 g/ha unless otherwise stated, evaluated after 13 days, five-point scale
Description: as §1

[9] = system: Amaranthus retoflexus (AMARE); test: Post-emergence test, herbicidal damage; set-up: key: 5=81-100%; 4=61-80%; 3=41-60%; 2=21-40%; 1=1-20%; 0=no damage to the plant; -=not tested; details: sprayed after 8 days cultivation, 1000 g/ha unless otherwise stated, evaluated after 13 days, five-point scale
Description: as §1

[10] = system: Amaranthus palmeri (AMAPA); test: Post-emergence test, herbicidal damage; set-up: key: 5=81-100%; 4=61-80%; 3=41-60%; 2=21-40%; 1=1-20%; 0=no damage to the plant; -=not tested; details: sprayed after 8 days cultivation, 1000 g/ha unless otherwise stated, evaluated after 13 days, five-point scale
Description: as §1

Setaria faberi (SETFA) [11] = test: Post-emergence test, herbicidal damage; set-up: key: 5=81-100%; 4=61-80%; 3=41-60%; 2=21-40%; 1=1-20%; 0=no damage to the plant; -=not tested; details: sprayed after 8 days cultivation, 1000 g/ha unless otherwise stated, evaluated after 13 days, five-point scale
Description: as §1

Zea mays (ZEAMX) [12] = test: Pre-emergence test, herbicidal damage; set-up: key: 5=81-100%; 4=61-80%; 3=41-60%; 2=21-40%; 1=1-20%; 0=no damage to the plant; -=not tested; details: 1000 g/ha unless otherwise stated, evaluated after 13 days, five-point scale

Row | Compound | percentage damage caused to the plant, IPOHE [1] | percentage damage caused to the plant, SEFTA (Setaria faberi (SETFA) [2]) | percentage damage caused to the plant, ECHCG [3] | percentage damage caused to the plant, AMARE [4] | percentage damage caused to the plant, AMAPA [5] | percentage damage caused to the plant, IPOHE [6] | percentage damage caused to the plant, ECHCG [7] | percentage damage caused to the plant, ZEAMX (Zea mays (ZEAMX) [8]) | percentage damage caused to the plant, AMARE [9] | percentage damage caused to the plant, AMAPA [10] | percentage damage caused to the plant, SEFTA (Setaria faberi (SETFA) [11]) | percentage damage caused to the plant, ZEAMX (Zea mays (ZEAMX) [12])
1 | Cc1c(Cl)c(-c2ccc(Cl)c(Cl)c2)c(C(=O)O)c(=O)n1Cc1ccc(C(F)(F)F)cc1F [Compound 28, 5-chloro-4-(3,4-dichlorophenyl)-1-[[2-fluoro-4-(trifluoromethyl)phenyl]methyl]-6-methyl-2-oxo-pyridine-3-carboxylic acid] | 1 (1=1-20%) | 0 | 1 (1=1-20%) | 3 (3=41-60%) | 4 (4=61-80%) | 1 (1=1-20%) | 0 | 1 (1=1-20%) | 3 (3=41-60%) | 4 (4=61-80%) | 1 (1=1-20%) | 1 (1=1-20%)
2 | Cc1c(Cl)c(-c2ccc(Cl)c(Cl)c2)c(C(=O)O)c(=O)n1-c1ccc(Cl)cc1 [Compound 3, 5-chloro-1-(4-chlorophenyl)-4-(3,4-dichlorophenyl)-6-methyl-2-oxo-pyridine-3-carboxylic acid] | 0 | 2 (2=21-40%) | 1 (1=1-20%) | 2 (2=21-40%) | 4 (4=61-80%) | 2 (2=21-40%) | 0 | 1 (1=1-20%) | 4 (4=61-80%) | 4 (4=61-80%) | 1 (1=1-20%) | 0
3 | Cc1c(Br)c(-c2ccc(Cl)c(Cl)c2)c(C(=O)O)c(=O)n1-c1ccc(F)cc1F [Compound 29, 5-bromo-4-(3,4-dichlorophenyl)-1-(2,4-difluorophenyl)-6-methyl-2-oxo-pyridine-3-carboxylic acid] | 1 (1=1-20%) | 1 (1=1-20%) | 1 (1=1-20%) | 1 (1=1-20%) | – | 1 (1=1-20%) | 1 (1=1-20%) | 0 | 1 (1=1-20%) | – | 1 (1=1-20%) | 0
4 | Cc1c(Cl)c(-c2ccc(Cl)c(Cl)c2)c(C(=O)O)c(=O)n1-c1cccc(C(F)(F)F)c1F [Compound 23, 5-chloro-4-(3,4-dichlorophenyl)-1-[2-fluoro-3-(trifluoromethyl)phenyl]-6-methyl-2-oxo-pyridine-3-carboxylic acid] | 0 | 1 (1=1-20%) | 1 (1=1-20%) | 4 (4=61-80%) | 4 (4=61-80%) | 1 (1=1-20%) | 1 (1=1-20%) | 1 (1=1-20%) | 4 (4=61-80%) | 4 (4=61-80%) | 1 (1=1-20%) | 0
5 | Cc1cc(-c2ccc(Cl)c(Cl)c2)c(C(=O)O)c(=O)n1Cc1ccc(Cl)cc1F [Compound 22, 1-[(4-chloro-2-fluoro-phenyl)methyl]-4-(3,4-dichlorophenyl)-6-methyl-2-oxo-pyridine-3-carboxylic acid] | 0 | 1 (1=1-20%) | 1 (1=1-20%) | 1 (1=1-20%) | 1 (1=1-20%) | 1 (1=1-20%) | 0 | 1 (1=1-20%) | 3 (3=41-60%) | 3 (3=41-60%) | 1 (1=1-20%) | 1 (1=1-20%)
6 | COCc1c(-c2ccc(Cl)c(Cl)c2)c(C(=O)O)c(=O)n(-c2ccc(F)cc2F)c1C [Compound 36, 4-(3,4-dichlorophenyl)-1-(2,4-difluorophenyl)-5-(methoxymethyl)-6-methyl-2-oxo-pyridine-3-carboxylic acid] | 1 (1=1-20%) | 0 | 1 (1=1-20%) | 2 (2=21-40%) | 2 (2=21-40%) | 1 (1=1-20%) | 0 | 0 | 2 (2=21-40%) | 2 (2=21-40%) | 1 (1=1-20%) | 0
7 | Cc1c(Br)c(-c2ccc(Cl)c(Cl)c2)c(C(=O)O)c(=O)n1-c1ccc(Cl)cc1F [Compound 21, 5-bromo-1-(4-chloro-2-fluoro-phenyl)-4-(3,4-dichlorophenyl)-6-methyl-2-oxo-pyridine-3-carboxylic acid] | – | 1 (1=1-20%) | 1 (1=1-20%) | 4 (4=61-80%) | 4 (4=61-80%) | 1 (1=1-20%) | 0 | 1 (1=1-20%) | – | 4 (4=61-80%) | 1 (1=1-20%) | 0
8 | Cc1cc(-c2ccc(Cl)c(Cl)c2)c(C(=O)O)c(=O)n1Cc1ccc(C(F)(F)F)cc1F [Compound 27, 4-(3,4-dichlorophenyl)-1-[[2-fluoro-4-(trifluoromethyl)phenyl]methyl]-6-methyl-2-oxo-pyridine-3-carboxylic acid] | 0 | 0 | – | 0 | 1 (1=1-20%) | – | 0 | 0 | 0 | 1 (1=1-20%) | 0 | 0
9 | Cc1cc(-c2ccc(Cl)c(Cl)c2)c(C(=O)O)c(=O)n1-c1ccc(F)cc1F [Compound 14, 4-(3,4-dichlorophenyl)-1-(2,4-difluorophenyl)-6-methyl-2-oxo-pyridine-3-carboxylic acid] | 0 | 0 | 0 | 0 | – | 0 | 1 (1=1-20%) | 1 (1=1-20%) | 1 (1=1-20%) | 1 (1=1-20%) | 1 (1=1-20%) | 0
